Assay results published in ChEMBL document CHEMBL3045114, “SAR studies of sesquiterpene lactones as Orobanche cumana seed germination stimulants” (2002).
The source made the active and inactive calls. The calls are words filed in the database; no cut-off is given here.

System: Orobanche cernua var. cumana
Test: Induction of Orobanche cernua var. cumana seed germination at 100 uM after 6 days
Type: functional

| Compound | Activity [%] |
| --- | --- |
| CC1=C[C@H](O/C=C2/C(=O)O[C@@H]3c4ccccc4C[C@H]23)OC1=O | 50 |

System: Phelipanche ramosa
Test: Induction of Orobanche ramosa seed germination at 100 uM after 6 days
Type: functional

| Compound | Activity [%] |
| --- | --- |
| CC1=C[C@H](O/C=C2/C(=O)O[C@@H]3c4ccccc4C[C@H]23)OC1=O | 65 |

System: Orobanche crenata
Test: Induction of Orobanche crenata seed germination at 100 uM after 6 days
Type: functional

| Compound | Activity [%] |
| --- | --- |
| CC1=C[C@H](O/C=C2/C(=O)O[C@@H]3c4ccccc4C[C@H]23)OC1=O | 80 |

System: Orobanche crenata
Test: Induction of Orobanche crenata seed germination after 6 days
Type: functional

| Compound | Activity [%] |
| --- | --- |
| CC1=C[C@H](O/C=C2/C(=O)O[C@@H]3C4=C(CCC[C@@H]4C)C[C@H]23)OC1=O [SORGOLACTONE] | >40 |

System: Orobanche minor
Test: Induction of Orobanche minor seed germination at 0.001 uM after 6 days
Type: functional

| Compound | Activity [%] |
| --- | --- |
| COC(=O)/C(=C/O[C@H]1C=C(C)C(=O)O1)N1C(=O)c2ccccc2C1=O [NIJMEGEN-1] | 0 |
| CC1=CC(O/C=C2/C(=O)OC3C2C=C2CCCC(C)(C)C23O)OC1=O (stereo unspecified) [ALECTROL] | >40 |
| CC1=C[C@H](O/C=C2/C(=O)O[C@@H]3C4=C(CCCC4(C)C)[C@@H](O)[C@H]23)OC1=O [OROBANCHOL] | >40 |
| CC1=C[C@H](O/C=C2/C(=O)O[C@@H]3C4=C(C[C@H]23)[C@@H](O)CCC4(C)C)OC1=O [STRIGOL] | >40 |

System: Orobanche cernua var. cumana
Test: Induction of Orobanche cernua var. cumana seed germination at 10 uM after 6 days
Type: functional

| Compound | Activity |
| --- | --- |
| C=C1CC[C@@H](O)[C@]2(C)CC[C@H]3C(=C)C(=O)O[C@@H]3[C@@H]12 [REYNOSIN] | 0% |
| CC1=C[C@H](O/C=C2/C(=O)O[C@@H]3c4ccccc4C[C@H]23)OC1=O | 65% |
| C=C1C(=O)O[C@@H]2/C=C(\C)CC/C=C(/CO)CC[C@@H]12 | 0% |
| C=C1C(=O)O[C@@H]2C3O[C@]3(C)CC/C=C(\C)CC[C@@H]12 (stereo partly specified) | >40% |
| CC1=C[C@@H](O/C=C2/C(=O)O[C@H]3C=CC[C@@H]23)OC1=O | 0% |
| C/C1=C\CC[C@@]2(C)O[C@@H]2[C@H]2OC(=O)[C@](C)(O)[C@@H]2CC1 | 0% |
| C=C1C2[C@H]3OC(=O)C(=C)[C@@H]3CC[C@@]2(C)[C@H](O)C[C@H]1O (stereo partly specified) | inactive |
| C=C1CC[C@H]2[C@H](CO)C(=O)O[C@@H]2C2C(=C)[C@H](O)CC12 (stereo partly specified) | >40% |
| C=C1C(=O)O[C@H]2[C@H]1CC[C@@]1(C)[C@H](O)CC=C(C)[C@]21O | inactive |
| C=C1[C@@H]2[C@H]3OC(=O)C(=C)[C@@H]3CCC(=C)[C@@H]2C[C@H]1O [ISOZALUZANIN C] | >40% |
| C=C1C(=O)O[C@H]2[C@H]1CCC(=C)[C@]1(O)C[C@@H](O)C(=C)[C@]21O | 0% |
| C=C1C(=O)O[C@@H]2/C=C(\C)CC[C@H]3O[C@]3(C)CC[C@@H]12 [1,10-EPOXYCOSTUNOLIDE] | >40% |
| C=C1CC[C@H]2[C@H](CO)C(=O)O[C@@H]2C2C(=C)CCC12 (stereo partly specified) | >40% |
